Laboratory results reported in ChEMBL document CHEMBL3853329, “1,2,4-Triazolyl 5-Azaspiro[2.4]heptanes: Lead Identification and Early Lead Optimization of a New Series of Potent and Selective Dopamine D3 Receptor Antagonists” (J Med Chem, 2016).

What was measured:
in vitro [1] = details: rat, liver microsomes
in vitro [2] = details: human, liver microsomes
[3] = human, caco-2
in vivo [4] = details: rat, po, 5 mg/kg
in vivo [5] = details: rat, whole blood, iv, 1 mg/kg
in vivo [6] = details: rat, iv, 1 mg/kg
in vivo [7] = details: rat
in vivo [8] = details: rat, po, 5 mg/kg; remark: listed apart in the source
in vivo [9] = details: rat, brain

| microsomal CLint at 0.5 h, 0.5 µM (in vitro [1]) | microsomal CLint at 0.5 h, 0.5 µM (in vitro [2]) | permeability [3] | Fa (in vivo [4]) | clearance (in vivo [5]) | Vd (in vivo [6]) | half-life (in vivo [7]) | bioavailability (in vivo [8]) | Kp (in vivo [9]) | Compound |
| --- | --- | --- | --- | --- | --- | --- | --- | --- | --- |
| 41 µL/min/mg | 155 µL/min/mg |  |  |  |  |  |  |  | Cn1c(SCCCN2CC[C@]3(C[C@@H]3c3ccc(C(F)(F)F)cc3)C2)nnc1-c1ccc(C(N)=O)cc1 |
| 98 µL/min/mg | 299 µL/min/mg |  |  |  |  |  |  |  | Cc1ccc(-c2nnc(SCCCN3CC[C@]4(C[C@@H]4c4ccc(C(F)(F)F)cc4)C3)n2C)c(C)n1 |
| 161 µL/min/mg | 22 µL/min/mg |  |  |  |  |  |  |  | Cc1ncoc1-c1nnc(SCCCN2CC[C@]3(C[C@H]3c3ccc(C(F)(F)F)cc3)C2)n1C |
| 100 µL/min/mg | 447 µL/min/mg |  |  |  |  |  |  |  | Cn1c(SCCCN2CC[C@]3(C[C@@H]3c3ccc(C(F)(F)F)cc3)C2)nnc1-c1cccc(-c2ncco2)c1 |
| 16 µL/min/mg | 41 µL/min/mg | Permeable | 17% | 30.2 mL/min/kg | 4 L/kg | 1.9 h | 10% | 0.4 | Cn1c(SCCCN2CC[C@]3(C[C@@H]3c3ccc(C(F)(F)F)cc3)C2)nnc1-c1ccc(=O)n(C)c1 |
| 161 µL/min/mg | 53 µL/min/mg |  |  |  |  |  |  |  | Cc1ncoc1-c1nnc(SCCCN2CC[C@@]3(C[C@H]3c3ccc(F)cc3F)C2)n1C |
| 83 µL/min/mg | 86 µL/min/mg |  |  |  |  |  |  |  | Cc1ncoc1-c1nnc(SCCCN2CC[C@]3(C[C@@H]3c3ccc(C(F)(F)F)cc3)C2)n1C |
| 38 µL/min/mg | 299 µL/min/mg |  | 54% | 21.1 mL/min/kg | 5.5 L/kg | 4.3 h | 39% | 1.5 | Cc1nc(C(N)=O)ccc1-c1nnc(SCCCN2CC[C@]3(C[C@@H]3c3ccc(C(F)(F)F)cc3)C2)n1C |
| 276 µL/min/mg | 352 µL/min/mg |  |  |  |  |  |  |  | Cn1c(SCCCN2CC[C@]3(C[C@@H]3c3ccc(C(F)(F)F)cc3)C2)nnc1-c1ccc(-c2ncco2)cc1 |
| 59 µL/min/mg | 34 µL/min/mg | Permeable | 57% | 87.3 mL/min/kg | 3.7 L/kg | 0.6 h | 11% | 0.3 | Cn1c(SCCCN2CC[C@]3(C[C@@H]3c3ccc(C(F)(F)F)cc3)C2)nnc1C1CCOCC1 |
| 278 µL/min/mg | 485 µL/min/mg |  |  |  |  |  |  |  | Cn1c(SCCCN2CC[C@]3(C[C@@H]3c3ccc(C(F)(F)F)cc3F)C2)nnc1-c1cccnc1 |
| 29 µL/min/mg | 106 µL/min/mg |  | 40% | 19.4 mL/min/kg | 3.2 L/kg | 2.2 h | 26% |  | Cn1c(SCCCN2CC[C@]3(C[C@@H]3c3ccc(C(F)(F)F)cc3)C2)nnc1-c1ccc(C(N)=O)nc1 |
| 201 µL/min/mg | 339 µL/min/mg |  |  |  |  |  |  |  | Cn1c(SCCCN2CC[C@]3(C[C@@H]3c3ccc(C(F)(F)F)cc3)C2)nnc1C1CCCCC1 |
| 103 µL/min/mg | 80 µL/min/mg |  |  |  |  |  |  |  | Cc1ncccc1-c1nnc(SCCCN2CC[C@]3(C[C@@H]3c3ccc(C(F)(F)F)cc3)C2)n1C |
| 92 µL/min/mg | 187 µL/min/mg |  |  |  |  |  |  |  | Cn1c(SCCCN2CC[C@]3(C[C@@H]3c3ccc(C(F)(F)F)cc3)C2)nnc1-c1cccc(C(N)=O)c1 |
| 22 µL/min/mg | 58 µL/min/mg |  |  |  |  |  |  |  | Cn1c(SCCCN2CC[C@]3(C[C@@H]3c3ccc(C(F)(F)F)cc3)C2)nnc1-c1ccc(CC(N)=O)cc1 |
| < 11 µL/min/mg | 25 µL/min/mg |  |  |  |  |  |  |  | Cn1c(SCCCN2CC[C@]3(C[C@@H]3c3ccc(C(F)(F)F)cc3)C2)nnc1C1CCNC(=O)C1 (single isomer, unassigned) |
| 21.3 µL/min/mg | 50 µL/min/mg |  |  | 80 mL/min/kg | 2.6 L/kg |  |  |  | Cn1c(SCCCN2CC[C@]3(C[C@@H]3c3ccc(C(F)(F)F)cc3)C2)nnc1C1CC2CCC(C1)O2 (single isomer, unassigned; enantiomer 1) |
| 51 µL/min/mg | 65 µL/min/mg |  |  |  |  |  |  |  | Cc1ncoc1-c1nnc(SCCCN2CC[C@]3(C[C@H]3c3ccc(F)cc3C(F)(F)F)C2)n1C (single isomer, unassigned; enantiomer 1) |
| 151 µL/min/mg | 320 µL/min/mg |  |  |  |  |  |  |  | Cc1ncoc1-c1nnc(SCCCN2CC[C@@]3(C[C@H]3c3ccc(F)cc3C(F)(F)F)C2)n1C (single isomer, unassigned; enantiomer 2) |
| 14 µL/min/mg | 28 µL/min/mg | Impermeable | 1% | 48 mL/min/kg | 9.1 L/kg | 3.4 h | 2% |  | Cn1c(SCCCN2CC[C@]3(C[C@@H]3c3ccc(C(F)(F)F)cc3)C2)nnc1C1=CCC(=O)N=C1 (stereo in doubt) |

| Compound | microsomal CLint at 0.5 h, 0.5 µM (in vitro [1]) | microsomal CLint at 0.5 h, 0.5 µM (in vitro [2]) | permeability [3] | Fa (in vivo [4]) | clearance (in vivo [5]) | Vd (in vivo [6]) | half-life (in vivo [7]) | bioavailability (in vivo [8]) | Kp (in vivo [9]) |
| --- | --- | --- | --- | --- | --- | --- | --- | --- | --- |
| Cc1ncoc1-c1nnc(SCCCN2CC[C@@]3(C[C@H]3c3ccc(F)cc3)C2)n1C | 73 µL/min/mg | 37 µL/min/mg |  |  |  |  |  |  |  |
